In BindingDB's records for patent US20250059213 (Pretzel Therapeutics, 2025):

Target: T1, Lon protease homolog, mitochondrial (Homo sapiens, UniProt P36776)
T1 sequence (P36776 whole entry): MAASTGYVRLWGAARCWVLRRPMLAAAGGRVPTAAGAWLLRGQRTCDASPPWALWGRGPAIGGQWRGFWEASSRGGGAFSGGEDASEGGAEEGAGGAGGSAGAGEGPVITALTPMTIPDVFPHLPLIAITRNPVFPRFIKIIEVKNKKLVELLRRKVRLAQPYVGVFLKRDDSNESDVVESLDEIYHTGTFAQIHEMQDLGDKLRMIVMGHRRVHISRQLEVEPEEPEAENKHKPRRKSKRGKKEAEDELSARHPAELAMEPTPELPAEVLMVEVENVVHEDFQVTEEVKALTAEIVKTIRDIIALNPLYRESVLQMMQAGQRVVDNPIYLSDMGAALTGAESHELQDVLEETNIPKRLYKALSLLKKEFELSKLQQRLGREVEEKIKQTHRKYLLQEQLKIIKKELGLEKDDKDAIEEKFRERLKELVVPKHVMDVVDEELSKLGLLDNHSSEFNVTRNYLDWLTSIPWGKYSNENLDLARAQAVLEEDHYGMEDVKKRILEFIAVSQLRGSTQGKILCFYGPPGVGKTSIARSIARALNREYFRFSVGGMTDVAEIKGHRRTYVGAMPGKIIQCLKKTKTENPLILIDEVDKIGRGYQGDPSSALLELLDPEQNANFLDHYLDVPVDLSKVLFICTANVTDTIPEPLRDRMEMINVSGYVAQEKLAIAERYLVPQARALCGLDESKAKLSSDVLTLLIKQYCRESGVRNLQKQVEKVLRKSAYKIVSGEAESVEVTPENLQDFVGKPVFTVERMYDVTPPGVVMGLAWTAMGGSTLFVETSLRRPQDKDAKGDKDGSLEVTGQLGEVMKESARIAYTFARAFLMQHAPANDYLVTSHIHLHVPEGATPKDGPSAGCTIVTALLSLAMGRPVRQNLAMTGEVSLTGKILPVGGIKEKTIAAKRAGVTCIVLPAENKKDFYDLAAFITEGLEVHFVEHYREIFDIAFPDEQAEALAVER
Assay: FRET-Based Assay
Protocol: The LONP1-containing mix (10 μL) was incubated with the test compound for 15 min at 37° C. before adding the peptide-containing mix (5 μL). Solutions were dispensed using a small cassette-Multidrop Combi (Thermo Scientific).

IC50: < 50 nM
Structure (SMILES): COCC[C@@H](NC(=O)c1cnccn1)C(=O)N[C@@H](CCCc1ccccc1)B(O)O [US20250059213, Compound 13]
